Experimental data from patent publication EP0067913B1, “Composition for the treatment of acne” (RUSH-HAMPTON INDUSTRIES, INC., priority 1981, dated 1982).

Legend:
[1] = system: Pityrosporum ovale ATCC 14521; test: Fungicidal activity test in corn oil medium (Sabouraud Dextrose broth and corn oil); format: cell-based; conditions: concentrations of 200 ppm or greater in the upper oil layer; 37°C, aerobic conditions, 7 days
Protocol: This organism is cultured in a corn oil medium prepared with Sabouraud Dextrose broth and Mazola@ Corn Oil. Solutions of naringenin and this broth were made in which the concentration of naringenin in the upper oil layer was 200 ppm, 400 ppm, 600 ppm, and 800 ppm. Three solutions of each concentration were tested. Each tube was inoculated with a loop full of the test organism and incubated at 37°C under aerobic conditions for 7 days.

[2] = Water solubility (qualitative comparison); format: physicochemical; conditions: qualitative comparison with partially hydrolyzed naringin

O=C1C[C@@H](c2ccc(O)cc2)Oc2cc(O)cc(O)c21 [naringenin]
effect on the growth of Pityrosporum ovale ATCC 14521 [1]: severely retarded the growth
water solubility [2]: less than those of partially hydrolyzed naringin
